Source: ChEMBL document CHEMBL1144784, “A novel series of potent and selective ketone histone deacetylase inhibitors with antitumor activity in vivo” (J Med Chem, 2008)

Tests used:
[1] = test system: HCT-116; test: Antitumor activity against human HCT116 cells xenografted BALB/c mouse assessed as tumor growth inhibition at 60 mg/kg, ip administered for 5 days per week for 2.5 weeks; details: HCT-116, ip, read-out: TGI
[2] = test system: Mus musculus; test: Toxicity against human HCT116 cells xenografted BALB/c mouse assessed as body weight loss at 25 mg/kg, ip administered 5 days per week for 2.5 weeks; type: organism-based, HCT-116; design: dose 25 mg/kg, route intraperitoneal; details: in vivo
[3] = Toxicity in ip dosed BALB/c mouse assessed as maximum tolerated dose; type: organism-based; details: in vivo
[4] = test system: HCT-116; test: Antiproliferative activity against human HCT116 cells by CellTiter-Blue cell viability assay; type: functional, cell-based
[5] = test system: A549; test: Antiproliferative activity against human A549 cells by CellTiter-Blue cell viability assay; type: functional, cell-based
[6] = test system: G-401; test: Antiproliferative activity against human G401 cells by CellTiter-Blue cell viability assay; type: functional, cell-based
[7] = test system: A2780; test: Antiproliferative activity against human A2780 cells by CellTiter-Blue cell viability assay; type: functional, cell-based
[8] = Antiproliferative activity against human renal epithelial cells by CellTiter-Blue cell viability assay; type: ADME, cell-based
[9] = molecular target: Histone deacetylase 2 (Homo sapiens, UniProt Q92769)
Sequence of Histone deacetylase 2 (Q92769 whole entry): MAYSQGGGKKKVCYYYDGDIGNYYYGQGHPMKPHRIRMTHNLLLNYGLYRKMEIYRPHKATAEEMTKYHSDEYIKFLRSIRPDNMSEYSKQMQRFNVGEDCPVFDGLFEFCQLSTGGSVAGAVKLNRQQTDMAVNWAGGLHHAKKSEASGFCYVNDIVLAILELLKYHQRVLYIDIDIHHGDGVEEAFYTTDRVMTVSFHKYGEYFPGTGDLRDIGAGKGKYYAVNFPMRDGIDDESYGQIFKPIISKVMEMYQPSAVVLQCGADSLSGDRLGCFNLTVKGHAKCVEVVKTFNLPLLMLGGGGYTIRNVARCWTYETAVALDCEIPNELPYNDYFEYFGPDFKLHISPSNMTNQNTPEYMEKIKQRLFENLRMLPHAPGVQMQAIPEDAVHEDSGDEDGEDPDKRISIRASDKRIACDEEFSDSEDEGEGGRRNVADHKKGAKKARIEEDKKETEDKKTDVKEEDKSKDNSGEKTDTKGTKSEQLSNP

[10] = molecular target: Histone deacetylase 3 (Homo sapiens, UniProt O15379)
Sequence of Histone deacetylase 3 (O15379 whole entry): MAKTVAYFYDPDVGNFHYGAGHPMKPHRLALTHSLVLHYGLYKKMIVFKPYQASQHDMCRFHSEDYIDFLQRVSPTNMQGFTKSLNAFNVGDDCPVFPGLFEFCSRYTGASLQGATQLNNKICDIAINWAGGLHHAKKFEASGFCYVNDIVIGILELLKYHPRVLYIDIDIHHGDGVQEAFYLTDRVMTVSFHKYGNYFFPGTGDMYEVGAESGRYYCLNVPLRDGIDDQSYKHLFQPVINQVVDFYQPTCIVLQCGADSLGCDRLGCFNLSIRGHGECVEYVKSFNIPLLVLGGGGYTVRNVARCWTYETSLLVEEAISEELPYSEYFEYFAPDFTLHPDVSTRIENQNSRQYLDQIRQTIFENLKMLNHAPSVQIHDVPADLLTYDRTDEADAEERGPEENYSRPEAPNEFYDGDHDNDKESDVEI

[11] = molecular target: T1, Histone deacetylase 4 (Homo sapiens, UniProt P56524); test: Inhibition of HDAC4 expressed in Escherichia coli
Target sequence in this assay (P56524 whole entry): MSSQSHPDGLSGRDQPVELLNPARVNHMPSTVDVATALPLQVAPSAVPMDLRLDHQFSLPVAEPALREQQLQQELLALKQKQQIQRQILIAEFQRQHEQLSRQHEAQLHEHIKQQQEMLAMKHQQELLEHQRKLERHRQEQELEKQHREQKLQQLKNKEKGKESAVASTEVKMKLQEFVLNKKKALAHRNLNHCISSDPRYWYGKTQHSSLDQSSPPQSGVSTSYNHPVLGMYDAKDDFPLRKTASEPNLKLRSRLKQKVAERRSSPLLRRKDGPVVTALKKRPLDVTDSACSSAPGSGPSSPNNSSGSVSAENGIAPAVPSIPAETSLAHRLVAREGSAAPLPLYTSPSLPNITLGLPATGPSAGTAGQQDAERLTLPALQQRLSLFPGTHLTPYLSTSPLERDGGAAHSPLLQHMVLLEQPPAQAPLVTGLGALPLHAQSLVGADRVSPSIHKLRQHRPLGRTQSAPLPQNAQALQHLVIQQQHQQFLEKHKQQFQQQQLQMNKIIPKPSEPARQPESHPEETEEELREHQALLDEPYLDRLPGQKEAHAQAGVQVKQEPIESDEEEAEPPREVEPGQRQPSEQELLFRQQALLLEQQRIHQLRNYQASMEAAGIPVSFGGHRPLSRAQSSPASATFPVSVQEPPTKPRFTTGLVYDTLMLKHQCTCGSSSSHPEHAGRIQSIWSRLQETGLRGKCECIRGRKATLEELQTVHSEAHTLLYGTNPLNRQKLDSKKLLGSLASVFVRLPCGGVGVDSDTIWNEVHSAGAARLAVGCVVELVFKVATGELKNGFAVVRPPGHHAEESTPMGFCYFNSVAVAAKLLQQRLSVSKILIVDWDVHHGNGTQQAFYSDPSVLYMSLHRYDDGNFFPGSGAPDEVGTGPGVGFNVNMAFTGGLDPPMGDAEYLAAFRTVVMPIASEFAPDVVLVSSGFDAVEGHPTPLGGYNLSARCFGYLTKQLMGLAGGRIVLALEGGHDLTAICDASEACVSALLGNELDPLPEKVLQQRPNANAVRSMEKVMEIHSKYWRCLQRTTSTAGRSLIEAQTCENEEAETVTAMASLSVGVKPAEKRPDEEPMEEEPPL

[12] = molecular target: T1, Histone deacetylase 4; test: Inhibition of HDAC4 gain-of-function phenotype expressed in Escherichia coli
Target sequence in this assay (P56524 whole entry, looked up): as the sequence (P56524 whole entry) above

[13] = molecular target: Histone deacetylase 5 (Homo sapiens, UniProt Q9UQL6); test: Inhibition of HDAC5 expressed in Escherichia coli
Sequence of Histone deacetylase 5 (Q9UQL6 whole entry): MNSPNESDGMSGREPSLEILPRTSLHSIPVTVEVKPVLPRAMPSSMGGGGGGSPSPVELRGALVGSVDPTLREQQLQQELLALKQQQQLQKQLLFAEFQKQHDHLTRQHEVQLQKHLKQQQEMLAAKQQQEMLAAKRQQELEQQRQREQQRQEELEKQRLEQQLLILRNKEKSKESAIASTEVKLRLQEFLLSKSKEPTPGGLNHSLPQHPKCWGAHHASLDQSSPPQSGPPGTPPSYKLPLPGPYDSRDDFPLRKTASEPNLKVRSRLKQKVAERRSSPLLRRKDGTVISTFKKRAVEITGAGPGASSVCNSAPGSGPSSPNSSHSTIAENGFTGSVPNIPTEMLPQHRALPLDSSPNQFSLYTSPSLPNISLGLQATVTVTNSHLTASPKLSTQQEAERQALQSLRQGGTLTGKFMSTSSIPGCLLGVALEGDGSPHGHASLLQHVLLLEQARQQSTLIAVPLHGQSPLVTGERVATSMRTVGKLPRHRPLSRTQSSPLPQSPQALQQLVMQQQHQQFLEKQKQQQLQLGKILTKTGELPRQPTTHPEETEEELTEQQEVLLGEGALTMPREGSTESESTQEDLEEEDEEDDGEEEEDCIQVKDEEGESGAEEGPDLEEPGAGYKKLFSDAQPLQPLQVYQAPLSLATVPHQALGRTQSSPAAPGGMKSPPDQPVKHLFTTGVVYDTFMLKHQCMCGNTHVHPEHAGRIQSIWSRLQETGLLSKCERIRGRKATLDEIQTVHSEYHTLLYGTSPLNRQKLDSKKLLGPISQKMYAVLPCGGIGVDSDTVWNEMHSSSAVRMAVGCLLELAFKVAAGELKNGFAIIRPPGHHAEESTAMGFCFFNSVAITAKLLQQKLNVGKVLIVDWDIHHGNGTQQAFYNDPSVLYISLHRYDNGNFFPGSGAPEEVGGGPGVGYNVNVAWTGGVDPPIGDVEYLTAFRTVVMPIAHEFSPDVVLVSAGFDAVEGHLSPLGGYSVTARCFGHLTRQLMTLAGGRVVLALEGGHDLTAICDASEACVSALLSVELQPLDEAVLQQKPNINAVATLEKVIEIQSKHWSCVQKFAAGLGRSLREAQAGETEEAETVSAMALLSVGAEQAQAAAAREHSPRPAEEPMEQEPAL

[14] = molecular target: T2, Histone deacetylase 7 (Homo sapiens, UniProt Q8WUI4); test: Inhibition of HDAC7 expressed in Escherichia coli
T2 sequence (Q8WUI4 whole entry): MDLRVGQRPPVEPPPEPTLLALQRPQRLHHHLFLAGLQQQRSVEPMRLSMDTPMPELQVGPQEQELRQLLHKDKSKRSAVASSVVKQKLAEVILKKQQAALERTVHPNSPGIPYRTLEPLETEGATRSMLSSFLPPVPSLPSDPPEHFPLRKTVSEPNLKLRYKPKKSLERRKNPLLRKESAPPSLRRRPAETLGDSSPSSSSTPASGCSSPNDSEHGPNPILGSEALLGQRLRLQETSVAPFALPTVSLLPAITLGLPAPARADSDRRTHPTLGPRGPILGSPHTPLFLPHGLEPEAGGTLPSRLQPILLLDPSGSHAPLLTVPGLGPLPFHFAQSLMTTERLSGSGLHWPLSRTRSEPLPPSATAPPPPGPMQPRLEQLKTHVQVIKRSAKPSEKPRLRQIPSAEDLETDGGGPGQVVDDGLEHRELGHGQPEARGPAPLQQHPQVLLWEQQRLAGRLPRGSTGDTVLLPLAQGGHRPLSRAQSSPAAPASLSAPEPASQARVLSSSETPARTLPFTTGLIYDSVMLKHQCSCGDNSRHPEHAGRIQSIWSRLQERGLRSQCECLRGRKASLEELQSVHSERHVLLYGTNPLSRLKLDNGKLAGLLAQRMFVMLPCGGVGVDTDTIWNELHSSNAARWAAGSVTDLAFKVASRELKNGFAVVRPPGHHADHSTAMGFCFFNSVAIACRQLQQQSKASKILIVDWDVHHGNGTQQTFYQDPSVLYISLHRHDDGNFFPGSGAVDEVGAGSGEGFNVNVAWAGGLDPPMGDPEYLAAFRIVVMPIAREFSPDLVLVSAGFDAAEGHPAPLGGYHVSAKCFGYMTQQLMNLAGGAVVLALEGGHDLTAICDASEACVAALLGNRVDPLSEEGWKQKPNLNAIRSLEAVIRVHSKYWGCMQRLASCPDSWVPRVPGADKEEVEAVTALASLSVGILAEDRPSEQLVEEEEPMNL

[15] = molecular target: T3, Histone deacetylase 8 (Homo sapiens, UniProt Q9BY41); test: Inhibition of HDAC8 expressed in Escherichia coli
T3 sequence (Q9BY41 whole entry): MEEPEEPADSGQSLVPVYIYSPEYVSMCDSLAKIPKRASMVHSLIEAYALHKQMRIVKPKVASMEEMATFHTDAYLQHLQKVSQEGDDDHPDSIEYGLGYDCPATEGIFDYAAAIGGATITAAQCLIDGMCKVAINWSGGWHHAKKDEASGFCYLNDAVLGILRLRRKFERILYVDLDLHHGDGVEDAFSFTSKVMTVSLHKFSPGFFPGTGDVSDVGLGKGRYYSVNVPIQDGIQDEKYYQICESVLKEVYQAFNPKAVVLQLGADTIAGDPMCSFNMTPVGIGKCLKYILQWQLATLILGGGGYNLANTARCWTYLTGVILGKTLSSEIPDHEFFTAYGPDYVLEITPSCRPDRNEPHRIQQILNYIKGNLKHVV

[16] = test system: HeLa; test: Antiproliferative activity against human HeLa cells by CellTiter-Blue cell viability assay; type: functional, cell-based
[17] = test system: Plasma; test: Stability in human plasma at 5 uM after 4 hrs; type: ADME, cell-free
[18] = test system: Plasma; test: Stability in dog plasma at 5 uM after 4 hrs; type: ADME, cell-free, Canis lupus familiaris
[19] = test system: Plasma; test: Stability in rat plasma at 5 uM after 4 hrs; type: ADME, cell-free
[20] = test system: Plasma; test: Stability in mouse plasma at 5 uM after 4 hrs; type: ADME, cell-free
[21] = molecular target: Histone deacetylase 1 (Homo sapiens, UniProt Q13547)
Sequence of Histone deacetylase 1 (Q13547 whole entry): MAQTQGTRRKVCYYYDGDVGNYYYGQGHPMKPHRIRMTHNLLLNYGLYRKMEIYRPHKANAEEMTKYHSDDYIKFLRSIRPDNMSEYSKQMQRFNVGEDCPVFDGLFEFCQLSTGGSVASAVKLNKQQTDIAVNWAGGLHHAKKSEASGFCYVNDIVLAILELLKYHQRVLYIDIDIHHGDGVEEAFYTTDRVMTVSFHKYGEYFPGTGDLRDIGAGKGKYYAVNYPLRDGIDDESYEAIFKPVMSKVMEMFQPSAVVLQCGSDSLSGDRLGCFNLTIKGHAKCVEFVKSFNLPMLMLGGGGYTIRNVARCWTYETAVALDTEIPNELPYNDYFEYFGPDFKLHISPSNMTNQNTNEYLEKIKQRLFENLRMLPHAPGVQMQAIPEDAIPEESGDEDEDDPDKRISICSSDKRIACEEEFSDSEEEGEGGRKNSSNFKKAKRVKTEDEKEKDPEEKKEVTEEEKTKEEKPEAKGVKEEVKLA

[22] = molecular target: T4, Protein deacetylase HDAC6 (Homo sapiens, UniProt Q9UBN7)
T4 sequence (Q9UBN7 whole entry): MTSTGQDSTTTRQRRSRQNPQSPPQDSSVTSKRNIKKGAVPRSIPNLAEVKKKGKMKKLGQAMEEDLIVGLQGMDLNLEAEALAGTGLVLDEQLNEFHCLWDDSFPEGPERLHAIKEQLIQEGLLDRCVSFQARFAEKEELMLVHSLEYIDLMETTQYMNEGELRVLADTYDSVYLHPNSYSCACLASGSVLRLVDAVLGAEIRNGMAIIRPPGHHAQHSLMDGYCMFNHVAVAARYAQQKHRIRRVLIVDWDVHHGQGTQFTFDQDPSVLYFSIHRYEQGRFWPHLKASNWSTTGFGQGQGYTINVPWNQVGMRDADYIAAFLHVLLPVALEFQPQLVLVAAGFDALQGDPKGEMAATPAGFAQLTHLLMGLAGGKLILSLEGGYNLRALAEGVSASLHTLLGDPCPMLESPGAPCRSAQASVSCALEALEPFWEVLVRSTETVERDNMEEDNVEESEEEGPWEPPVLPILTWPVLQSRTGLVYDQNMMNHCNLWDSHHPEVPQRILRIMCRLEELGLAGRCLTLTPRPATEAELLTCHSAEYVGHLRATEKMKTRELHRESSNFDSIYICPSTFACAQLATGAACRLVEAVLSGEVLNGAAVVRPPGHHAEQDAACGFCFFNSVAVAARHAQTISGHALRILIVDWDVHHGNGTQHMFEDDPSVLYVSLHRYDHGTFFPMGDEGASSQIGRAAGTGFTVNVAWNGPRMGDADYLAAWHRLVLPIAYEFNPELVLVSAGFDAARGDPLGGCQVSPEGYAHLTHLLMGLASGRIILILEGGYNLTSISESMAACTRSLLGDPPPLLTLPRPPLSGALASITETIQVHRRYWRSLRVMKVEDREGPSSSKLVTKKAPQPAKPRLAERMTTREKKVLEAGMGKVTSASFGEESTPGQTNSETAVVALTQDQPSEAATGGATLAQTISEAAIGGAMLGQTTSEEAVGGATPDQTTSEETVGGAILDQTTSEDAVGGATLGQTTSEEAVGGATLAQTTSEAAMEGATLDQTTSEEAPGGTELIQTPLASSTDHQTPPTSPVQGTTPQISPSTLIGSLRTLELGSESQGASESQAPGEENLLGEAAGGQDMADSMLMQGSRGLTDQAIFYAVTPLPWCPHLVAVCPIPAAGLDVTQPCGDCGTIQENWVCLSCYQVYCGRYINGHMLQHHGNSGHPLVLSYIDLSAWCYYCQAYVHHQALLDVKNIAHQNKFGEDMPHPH

[23] = molecular target: T5, Protein deacetylase HDAC6 (Homo sapiens) (UniProt Q9UBN7); test: Inhibition of HDAC6 at 10 uM
T5 sequence (whole entry): T4 sequence (Q9UBN7 whole entry)

[24] = molecular target: T6, Histone deacetylase 8 (Homo sapiens) (UniProt Q9BY41); details: 10 uM
T6 sequence (whole entry): T3 sequence (Q9BY41 whole entry)
Description: Inhibition of HDAC8 expressed in Escherichia coli at 10 uM

[25] = test system: Mus musculus; test: Toxicity against human HCT116 cells xenografted BALB/c mouse assessed as body weight loss at 60 mg/kg, ip administered 5 days per week for 2.5 weeks; type: organism-based, HCT-116; design: dose 60 mg/kg, route intraperitoneal; details: in vivo
[26] = Intrinsic clearance in human liver microsomes; type: ADME, Microsome
[27] = Intrinsic clearance in Sprague-Dawley rat liver microsomes; type: ADME, Microsome
[28] = Clearance in Sprague-Dawley rat plasma; type: ADME, organism-based
[29] = Terminal half life in Sprague-Dawley rat; type: ADME, organism-based; details: in vivo
[30] = Oral bioavailability in Sprague-Dawley rat; type: ADME, organism-based; details: in vivo
[31] = test system: Mus musculus; test: Toxicity against human HCT116 cells xenografted BALB/c mouse assessed as body weight loss at 100 mg/kg, ip administered 5 days per week for 2.5 weeks; type: organism-based, HCT-116; design: dose 100 mg/kg, route intraperitoneal; details: in vivo
[32] = test system: Plasma; test: Stability in human plasma at 5 uM after 24 hrs; type: ADME, cell-free
[33] = test system: Plasma; test: Stability in dog plasma at 5 uM after 24 hrs; type: ADME, cell-free, Canis lupus familiaris
[34] = test system: Plasma; test: Stability in rat plasma at 5 uM after 24 hrs; type: ADME, cell-free
[35] = test system: Plasma; test: Stability in mouse plasma at 5 uM after 24 hrs; type: ADME, cell-free
[36] = AUC (0 to infinity) in Sprague-Dawley rat at 3 mg/kg, iv; type: ADME, organism-based; design: dose 3 mg/kg, route intravenous, time infinity; details: plasma
[37] = Clearance in Sprague-Dawley rat plasma at 3 mg/kg, iv; type: ADME, organism-based; design: dose 3 mg/kg, route intravenous

Row | Structure (SMILES) | MTD [3] [mg/kg] | IC50 [4] [nM] | IC50 [5] [nM] | IC50 [6] [nM] | IC50 [7] [nM] | IC50 [8] [nM] | IC50 [9] [nM] | IC50 [10] [nM] | IC50 [11] [nM] | IC50 [12] [nM] | IC50 [13] [nM] | IC50 [14] [nM] | IC50 [15] [nM] | IC50 [16] [nM] | Stability [17] | Stability [18] | Stability [19] | Stability [20] | IC50 [21] [nM] | IC50 [22] [nM] | further results
1 | Nc1ccccc1NC(=O)c1ccc(CNC(=O)OCc2cccnc2)cc1 [ENTINOSTAT] | 25 | 700 | 1200 | 1300 | 3000 | > 20000 | – | – | – | – | – | – | – | – | – | – | – | – | – | – | inhibition in vivo at 60 mg/kg [1]: 69%; Activity [2]: < 10%
2 | COc1ccc2[nH]c(C)c(CC(=O)N[C@@H](CCCCCC(C)=O)c3nc4ccc(Cl)cc4[nH]3)c2c1 | – | 4200 | 8200 | 7500 | 11000 | 41000 | 880 | 1000 | > 10000 | 4200 | > 10000 | > 10000 | > 10000 | 3100 | Stable | Stable | Stable | Stable | 670 | 970 | –
3 | CCC(=O)CCCCC[C@H](NC(=O)Cc1c(C)[nH]c2ccc(OC)cc12)c1ncc(-c2ccccc2)[nH]1 | – | 330 | 5200 | 250 | 420 | 5300 | 59 | 48 | > 10000 | > 10000 | > 10000 | > 10000 | – | 340 | – | – | – | – | 26 | – | inhibition [23]: 40%; inhibition [24]: 40%
4 | COc1ccc2[nH]c(C)c(CC(=O)N[C@@H](CCCCCC(C)=O)c3ncc(-c4ccccc4)[nH]3)c2c1 | 60 | 500 | 6300 | 960 | 2200 | 16000 | 110 | 120 | > 10000 | 6000 | > 10000 | > 10000 | > 5000 | 880 | Stable | Stable | Stable | Stable | 59 | 340 | Activity [25]: < 10%; microsomal CLint [26]: > 400 µL/min/mg; microsomal CLint [27]: > 400 µL/min/mg; clearance [28]: 80 mL/min/kg; half-life [29]: 1.3 h; bioavailability [30]: 15%
5 | O=C(CCCCCCC(=O)Nc1ccccc1)NO [VORINOSTAT] | – | – | – | – | – | – | – | – | – | – | – | – | – | – | – | – | – | – | – | – | Activity [31]: < 10%
6 | CC(=O)CCCCC[C@H](NC(=O)CCN1CCCCC1)C(=O)Nc1cnc2ccccc2c1.Cl.Cl | – | – | – | – | – | – | – | – | – | – | – | – | – | 2000 | – | – | – | – | 140 | – | Stability [32]: Stable; Stability [33]: Stable; Activity [34]: Not Active; Activity [35]: Not Active; AUC(0-inf) [36]: 0.05 µM·h; clearance [37]: > 150 mL/min/kg
